We go through 16 molecules from ChEMBL document CHEMBL1127982, “Synthesis, chemical half-life and decomposition of new N3-(substituted) derivatives of CCNU” (Bioorg Med Chem Lett, 1994).

One data set in a line: HChemical half-life was determined, not active.
Conditions: not given; call rule not given here
The format is ADME.
As for `O=NN(CCCl)C(=O)N(CCCO)C1CCCCC1`, the T1/2 entry was “Not Active”.

The next data set in a line: Partition coefficient (logD7.4). Particulars: octanol/water, pH 7.4.
What is called logD is the decadic logarithm of the distribution of all forms, ionised or not, between an organic phase and buffer at a given pH. `CC(C)N(C(=O)N(CCCl)N=O)C1CCCCC1` came in with a logD of 1.78. On to `CC(C)(C)N(C(=O)NCCCl)C1CCCCC1`, for which the logD stood at 3.03.

`C=CCN(C(=O)NCCCl)C1CCCCC1` displayed a logD of 1.48. The same measure, in the same setting: as for `CC(C)CN(C(=O)NCCCl)C1CCCCC1`, the figure is 1.93; as for `CN(C(=O)NCCCl)C1CCCCC1`, 1.41; as for `O=NN(CCCl)C(=O)NC1CCCCC1` [LOMUSTINE], 2.83. On to `CC(O)CN(C(=O)NCCCl)C1CCCCC1` (centres undefined), for which the logD was 0.37. On the same count and under the same terms, next, `CC(C)N(C(=O)NCCCl)C1CCCCC1`: 2.36.

Take `CC(C)(C)N(C(=O)N(CCCl)N=O)C1CCCCC1`: the logD was 2.46.

A further data set can be described thus: Chemical half-life was determined.
Conditions: not given
As a reminder, the half-life is the time in which the quantity being followed falls by half. A high value points to slow loss. With `O=NN(CCCl)C(=O)N(C1CCCCC1)C1CCCCC1`, the half-life was 62.6 h.

`CCCN(C(=O)N(CCCl)N=O)C1CCCCC1` had a half-life of 69.8 h. Molecule `C#CCN(C(=O)N(CCCl)N=O)C1CCCCC1` gave a half-life of 76.8 h. The molecule `CC(C)N(C(=O)N(CCCl)N=O)C1CCCCC1` gave a half-life of 32.9 h. Still for that read-out and setting: next, `CCN(C(=O)N(CCCl)N=O)C1CCCCC1`: 132 h; `O=NN(CCCl)C(=O)NC1CCCCC1` [LOMUSTINE]: 2.1 h; `CN(C(=O)N(CCCl)N=O)C1CCCCC1`: 47.8 h. Still for that read-out and setting: as for `CC(O)CN(C(=O)N(CCCl)N=O)C1CCCCC1` (centres undefined), the figure is 43.3 h.

A further data set in a line: Chemical half-life was determined; not active. The data set is classed as ADME.
Conditions: not given
Consider `CC(C)(C)N(C(=O)N(CCCl)N=O)C1CCCCC1`, for which the T1/2 entry is on record as “Not Active”.
